{"source": "patent US20020183366A1", "about": "“Cyclooxygenase-2 inhibitors, compositions and methods of use” (priority 2001, published 2002)", "key": {"ovine COX-1": {"target": "T1, ovine COX-1 (Ovis aries, UniProt P05979)", "T1 construct": "purchased Cayman Chemical, Ann Arbor, Mich", "T1 sequence (P05979 25-600)": "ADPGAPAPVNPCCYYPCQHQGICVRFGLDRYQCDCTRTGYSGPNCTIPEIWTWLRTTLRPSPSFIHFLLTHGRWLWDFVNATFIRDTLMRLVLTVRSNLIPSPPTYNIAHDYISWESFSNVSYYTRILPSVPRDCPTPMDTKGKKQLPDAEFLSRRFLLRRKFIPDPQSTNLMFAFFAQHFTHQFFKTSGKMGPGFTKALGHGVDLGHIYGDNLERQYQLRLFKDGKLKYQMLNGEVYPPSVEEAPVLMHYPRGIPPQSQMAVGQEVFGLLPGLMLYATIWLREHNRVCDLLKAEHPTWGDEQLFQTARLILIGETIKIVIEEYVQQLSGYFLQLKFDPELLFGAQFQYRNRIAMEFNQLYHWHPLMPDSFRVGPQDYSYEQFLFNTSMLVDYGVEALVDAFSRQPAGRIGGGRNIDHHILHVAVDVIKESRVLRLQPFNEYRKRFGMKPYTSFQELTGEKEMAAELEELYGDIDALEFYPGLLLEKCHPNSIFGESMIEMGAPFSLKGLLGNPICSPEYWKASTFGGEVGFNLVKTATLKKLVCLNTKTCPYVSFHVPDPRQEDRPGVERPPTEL", "assay": "COX Inhibitor Screening Assay, COX-1 activity", "format": "biochemical", "conditions": "100 μM test compound", "method": "(§1) The ovine COX-1 and human CO-2 activities and the measurement of the prostaglandin products synthesized were performed using the COX Inhibitor Screening Assay (Cayman Chemical, Ann Arbor, Mich., which also contained the Prostaglandin Screening EIA Kit, used for prostaglandin quantification). The test compounds were dissolved at 50 times the highest final reaction concentration in DMSO or any other suitable solvent as stock solutions. These stock solutions were then diluted in the same solvent. Eight glass test tubes (13×100 mm) were placed in a 37° C. water bath. To each test tube was added 950 μL of reaction buffer (0.1 M Tris-HCl, pH 8.0, containing 5 mM EDTA, and 2 mM phenol), 10 μL of 100 µM heme solution, and 10 μL (5 units) of either ovine COX-1 or human COX-2 and the resulting mixture was incubated with the enzyme for 2 minutes. Twenty μL of the solvent was added to one tube (100% initial activity or solvent control) and 20 μL of each dilution of the test compound was added to one tube each. Each tube was vortexed immediately after the addition. The enzyme was incubated with the inhibitor for 3.5 minutes at 37° C. The enzymatic reaction was then initiated by the addition of 10 μL of freshly prepared 10 mM arachidonic acid (neutralized with KOH), vortexed and then incubated for 2 minutes at 37° C. […]"}, "human COX-2": {"target": "T2, human COX-2 (Homo sapiens, UniProt P35354)", "T2 construct": "purchased Cayman Chemical, Ann Arbor, Mich", "T2 sequence (P35354 18-604)": "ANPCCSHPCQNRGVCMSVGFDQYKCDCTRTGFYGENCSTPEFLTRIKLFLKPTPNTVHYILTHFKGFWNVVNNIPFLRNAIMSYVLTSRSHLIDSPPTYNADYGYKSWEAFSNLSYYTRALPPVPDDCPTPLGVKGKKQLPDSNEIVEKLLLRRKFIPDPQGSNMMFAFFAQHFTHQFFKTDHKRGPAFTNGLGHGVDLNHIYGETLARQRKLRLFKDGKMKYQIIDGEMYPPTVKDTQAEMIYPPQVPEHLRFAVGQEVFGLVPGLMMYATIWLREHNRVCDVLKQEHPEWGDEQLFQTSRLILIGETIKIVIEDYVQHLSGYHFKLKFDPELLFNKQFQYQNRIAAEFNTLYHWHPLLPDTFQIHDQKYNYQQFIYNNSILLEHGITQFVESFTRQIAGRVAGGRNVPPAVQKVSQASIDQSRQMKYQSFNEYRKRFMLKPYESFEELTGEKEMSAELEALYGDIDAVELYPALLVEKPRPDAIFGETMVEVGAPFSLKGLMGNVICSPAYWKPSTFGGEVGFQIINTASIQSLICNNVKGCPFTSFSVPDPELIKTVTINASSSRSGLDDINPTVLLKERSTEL", "assay": "COX Inhibitor Screening Assay, COX-2 activity", "format": "biochemical", "method": "as §1"}}}
{"smiles": "O=C1OCC(c2ccc(S(=O)(=O)CF)cc2)=C1c1ccccc1", "note": "[Example 1, 4-(4-((Fluoromethyl)sulfonyl)phenyl)-3-phenyl-5-hydrofuran-2-one]", "values": [{"measurement": "COX-1 Inhibition (% at 100 μM)", "setting": "ovine COX-1", "value": 30, "unit": "%"}, {"measurement": "COX-2 Inhibition (% at 10 μM)", "setting": "human COX-2; 10 μM test compound, human COX-2", "value": 40, "unit": "%"}, {"measurement": "COX-2 selectivity", "setting": "human COX-2; COX-2 versus COX-1, from Table 1", "value": "has COX-2 selectivity"}]}
